What was measured:
[1] = system: RKO p27 uninduced (proliferating) colon adenocarcinoma cells; test: Alamar Blue cell viability assay, RKO p27 uninduced (proliferating); format: cell-based; conditions: Homo sapiens, RKOp27, Table B1, anti-proliferative/cytotoxic activity, 72 hours, read-out: −log EC50 RKO p27 uninduced (proliferating) (converted)
Procedure: The anti-proliferative/cytotoxic activity of the compounds described herein can be tested on subclones of RKO human colon adenocarcinoma cells (Schmidt et al., Oncogene 19, 2423-2429; 2000) using the Alamar Blue cell viability assay (described in O'Brien et al. Eur J Biochem 267, 5421-5426, 2000). The compounds are dissolved as 10 mM solutions in DMSO and subsequently diluted in semi-logarithmic steps. DMSO dilutions are further diluted 1:100 into Dulbecco's modified Eagle's medium (DMEM) containing 10% fetal calf serum to a final concentration twice as much as the final concentration in the test. RKO subclones are seeded into 96 well flat bottom plates at a density of 4000 cells per well in a volume of 50 μl per well. 24 hours after seeding the 50 μl each of the compound dilutions in DMEM medium are added into each well of the 96 well plate. Each compound dilution is tested as triplicates. Wells containing untreated control cells are filled with 50 μl DMEM medium containing 1% DMSO. The cells are then incubated with the substances for 72 hours at 37° C. in a humidified atmosphere containing 5% carbon dioxide. To determine the viability of the cells, 10 μl of an Alamar Blue solution (Biosource) are added and the fluorescence is measured at an extinction of 544 nm and an emission of 590 nm. For the calculation of the cell viability the emission value from untreated cells is set as 100% viability and the emission rates of treated cells are set in relation to the values of untreated cells. Viabilities are expressed as % values. The Graphpad Prism program is used for the calculation of EC50 values for anti-proliferative/cytotoxic activity out of the obtained dose-response curves.
(§1) To determine the cell cycle specific mode of action, subclones of RKO colon adenocarcinoma cells (RKOp21 or RKOp27 as described by Schmidt et al. in Oncogene 19, 2423-2429; 2000) are seeded into 96 well flat bottom plates at a density of 16000 cells per well in a volume of 50 μl per well in DMEM growth medium with 10% FCS containing 10 μM Ponasterone A. 24 hours after seeding the 50 μl each of the compound dilutions in DMEM medium are added into each well of the 96-well plate. Each compound dilution is tested as triplicates. Wells containing untreated control cells are filled with 50 μl DMEM medium containing 1% DMSO. The cells are then incubated with the substances for 72 hours at 37° C. in a humidified atmosphere containing 5% carbon dioxide. To determine the viability of the cells, 10 μl of an Alamar Blue solution (Biosource) are added and the fluorescence is measured at an extinction of 544 nm and an emission of 590 nm. For the calculation of the cell viability the emission value from untreated cells is set as 100% viability and the emission rates of treated cells are set in relation to the values of untreated cells. Viabilities are expressed as % values. The Graphpad Prism program (GraphPad Software, Inc) is used for the calculation of EC50 values out of the obtained dose-response curves. Viability is compared of proliferating cells grown in the absence of the inducer Ponasterone A, versus viability of cells arrested by the expression of ectopic p27Kip1 induced by Ponasterone A.
(§2) Representative values for anti-proliferation/cytotoxicity [measured as −log EC50 (mol/l)] determined in the aforementioned assays follow from the following tables B1, B2 and B3, in which the numbers of the compounds correspond to the numbers of the examples.

[2] = system: RKO p27 induced (arrested) colon adenocarcinoma cells; test: Alamar Blue cell viability assay, RKO p27 induced by Ponasterone A (arrested); format: cell-based; conditions: Homo sapiens, RKOp27, Table B1, cells arrested by Ponasterone A-induced p27Kip1, 72 hours, read-out: −log EC50 RKO p27 induced (arrested) (converted)
Procedure: as §1, §2

SMILES: COc1ccc2[nH]c3c(c2c1)C[C@@]1(C)C(=O)N(CCCCN(C)C)C(=O)N1[C@@H]3c1cccc(O)c1 (racemic) [Example 14, (3aSR,10RS)-2-(4-Dimethylamino-butyl)-10-(3-hydroxy-phenyl)-6-methoxy-3a-methyl-3a,4,9,10-tetrahydro-2,9,10a-triaza-cyclopenta[b]fluorene-1,3-dione]
- EC50 [1]: ≤ 39.8 nM
- EC50 [2]: ≥ 3160 nM

SMILES: CC[C@@]12Cc3c([nH]c4ccc(OC)cc34)[C@@H](c3cccc(O)c3)N1C(=O)N(CCN(C)C)C2=O (racemic) [Example 18, (3aSR,10RS)-2-(2-Dimethylamino-ethyl)-3a-ethyl-10-(3-hydroxy-phenyl)-6-methoxy-3a,4,9,10-tetrahydro-2,9,10a-triaza-cyclopenta[b]fluorene-1,3-dione]
- EC50 [1]: ≤ 39.8 nM
- EC50 [2]: ≥ 3160 nM

SMILES: CCNCCN1C(=O)N2[C@H](c3cccc(O)c3)c3[nH]c4ccc(OC)cc4c3C[C@@]2(C)C1=O (racemic) [Example 35, (3aSR,10RS)-2-(2-Ethylamino-ethyl)-10-(3-hydroxy-phenyl)-6-methoxy-3a-methyl-3a,4,9,10-tetrahydro-2,9,10a-triaza-cyclopenta[b]fluorene-1,3-dione]
- EC50 [1]: ≤ 39.8 nM
- EC50 [2]: ≥ 3160 nM

SMILES: C[C@@]12Cc3c([nH]c4ccc(Cl)cc34)[C@@H](c3cccc(O)c3)N1C(=O)N(CCN)C2=O (racemic) [Example 30, (3aSR,10RS)-2-(2-Amino-ethyl)-6-chloro-10-(3-hydroxy-phenyl)-3a-methyl-3a,4,9,10-tetrahydro-2,9,10a-triaza-cyclopenta[b]fluorene-1,3-dione]
- EC50 [1]: ≤ 39.8 nM
- EC50 [2]: ≥ 3160 nM

SMILES: CC(C)NCCN1C(=O)N2[C@H](c3cccc(O)c3)c3[nH]c4ccc(Cl)cc4c3C[C@@]2(C)C1=O (racemic) [Example 38, (3aSR,10RS)-6-Chloro-10-(3-hydroxy-phenyl)-2-(2-isopropylamino-ethyl)-3a-methyl-3a,4,9,10-tetrahydro-2,9,10a-triaza-cyclopenta[b]fluorene-1,3-dione]
- EC50 [1]: ≤ 39.8 nM
- EC50 [2]: ≥ 316 nM

SMILES: CN1C(=O)N2[C@H](c3cccc(O)c3)c3[nH]c4ccc(Br)cc4c3C[C@@]2(C)C1=O (racemic) [Example 4, (3aSR,10RS)-6-Bromo-10-(3-hydroxy-phenyl)-2,3a-dimethyl-3a,4,9,10-tetrahydro-2,9,10a-triaza-cyclopenta[b]fluorene-1,3-dione]
- EC50 [1]: 39.8 to 251 nM
- EC50 [2]: ≥ 3160 nM

SMILES: COc1ccc2[nH]c3c(c2c1)C[C@@]1(C)C(=O)N(CCNCC(C)C)C(=O)N1[C@@H]3c1cccc(O)c1 (racemic) [Example 49, (3aSR,10RS)-10-(3-Hydroxy-phenyl)-2-(2-isobutylamino-ethyl)-6-methoxy-3a-methyl-3a,4,9,10-tetrahydro-2,9,10a-triaza-cyclopenta[b]fluorene-1,3-dione]
- EC50 [1]: ≤ 39.8 nM
- EC50 [2]: ≥ 3160 nM

SMILES: C[C@@]12Cc3c([nH]c4ccc(Cl)cc34)[C@@H](c3cccc(O)c3)N1C(=O)N(CCN1CCC1)C2=O (racemic) [Example 29, (3aSR,10RS)-2-(2-Azetidin-1-yl-ethyl)-6-chloro-10-(3-hydroxy-phenyl)-3a-methyl-3a,4,9,10-tetrahydro-2,9,10a-triaza-cyclopenta[b]fluorene-1,3-dione]
- EC50 [1]: ≤ 39.8 nM
- EC50 [2]: ≥ 3160 nM

SMILES: COc1ccc2[nH]c3c(c2c1)C[C@@]1(C)C(=O)N(CCN)C(=O)N1[C@@H]3c1cccc(O)c1 (racemic) [Example 25, (3aSR,10RS)-2-(2-Amino-ethyl)-10-(3-hydroxy-phenyl)-6-methoxy-3a-methyl-3a,4,9,10-tetrahydro-2,9,10a-triaza-cyclopenta[b]fluorene-1,3-dione]
- EC50 [1]: ≤ 39.8 nM
- EC50 [2]: ≥ 3160 nM

SMILES: CCOc1ccc2[nH]c3c(c2c1)C[C@@]1(C)C(=O)N(CCN(C)C)C(=O)N1[C@@H]3c1cccc(O)c1 (racemic) [Example 23, (3aSR,10RS)-2-(2-Dimethylamino-ethyl)-6-ethoxy-10-(3-hydroxy-phenyl)-3a-methyl-3a,4,9,10-tetrahydro-2,9,10a-triaza-cyclopenta[b]fluorene-1,3-dione]
- EC50 [1]: ≤ 39.8 nM
- EC50 [2]: ≥ 3160 nM
